The text below walks through data of PubChem BioAssay (NCI).

The structures appear in SMILES notation. Where “and” joins values, the source holds several entries; their conditions need not be identical. Identical values can stand only once.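 Protocol summary: plate cells (96-well), add compound at 5 concentrations, incubate 48 h, interpolate endpoints linearly. GI50 = concentration required for 50% inhibition of growth. TGI denotes the concentration required for complete inhibition of growth.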 Where a SMILES comes first, the peptide text is derived from it. The star is where a group is joined. Cbz = O=C(OCc1ccccc1)* Some results are limits rather than exact numbers.

Some test systems named below: COLO 205 colon; EKVX NSCLC; HCT-15 colon; HT29 colon; LOX IMVI melanoma; MDA-MB-435; MDA-N; NCI-H460 lung; RPMI-8226 leukemia; SK-MEL-5 melanoma; SK-OV-3 ovarian; U251 CNS; UO-31 renal.
Common to all, as to test: NCI-60 cell line screen, 48 h

Turning to `O=C1CCSCCC(=O)Nc2ccccc2N1`, the TGI with COLO 205 colon, in the assay with EKVX NSCLC, with HCT-15 colon, in the assay with HT29 colon, in the assay on LOX IMVI melanoma and in the assay with MDA-MB-435 was over 100 µM each time. Further, the TGI with MDA-N, with NCI-H460 lung, in the assay with RPMI-8226 leukemia, in the assay on SK-MEL-5 melanoma, in the assay on SK-OV-3 ovarian and with U251 CNS was over 100 µM each time. For the same compound, in the assay with UO-31 renal, the TGI is over 100 µM.

Consider `C=C1CCCCCCCCC/C=C/1SCCCSC`, for which the TGI with COLO 205 colon, with EKVX NSCLC, in the assay with HCT-15 colon, with HT29 colon, with LOX IMVI melanoma and in the assay with MDA-MB-435 was over 100 µM in each case. For the same compound, the TGI with MDA-N, in the assay with NCI-H460 lung, in the assay on RPMI-8226 leukemia, with SK-MEL-5 melanoma, in the assay on SK-OV-3 ovarian and in the assay on U251 CNS was over 100 µM in each case. In the assay on UO-31 renal, the TGI was over 100 µM.

With `Cc1c2ccc3ccccc3c2c[n+]2ccccc12`, the TGI in the assay with COLO 205 colon was 16.5 µM; with EKVX NSCLC it was over 44.1 µM; in the assay on HCT-15 colon, over 100 µM; in the assay with HT29 colon, over 100 µM; in the assay with LOX IMVI melanoma, over 78.4 µM; in the assay with MDA-MB-435, 35.2 µM. The TGI in the assay on MDA-N stood at 19.8 µM; in the assay on NCI-H460 lung, 40.2 µM; with RPMI-8226 leukemia, 66.2 µM; in the assay on SK-MEL-5 melanoma, 21.9 µM; with SK-OV-3 ovarian, 83.2 µM; in the assay with U251 CNS, 15.6 µM. Further, the TGI in the assay on UO-31 renal stood at 60.6 µM.

With `CC(=O)c1ccc2c(c1)C(=O)c1sc(C(C)=O)cc1C2=O`, the TGI with COLO 205 colon is 7.94 µM; with EKVX NSCLC it was 3.43 µM and 2.58 µM; in the assay on HCT-15 colon, 2.18 µM; with HT29 colon it was 2.82 µM and 9.47 µM; with LOX IMVI melanoma, 2.12 µM; in the assay on MDA-MB-435, 2.63 µM and 0.33 µM. The TGI is 2.02 µM and 3.38 µM in the assay on MDA-N; 7.31 µM and 11 µM in the assay with NCI-H460 lung; 23.8 µM in the assay with RPMI-8226 leukemia; 1.89 µM in the assay on SK-MEL-5 melanoma; 14.3 µM and 21.4 µM in the assay on SK-OV-3 ovarian; 50 µM with U251 CNS. The TGI in the assay with UO-31 renal is 2.15 µM and 2.69 µM. Also, the GI50 is 2.71 µM in the assay with HT29 colon; 0.176 µM in the assay with MDA-MB-435; 0.316 µM in the assay on MDA-N; 0.362 µM with NCI-H460 lung; 5.66 µM in the assay on SK-OV-3 ovarian; 1.4 µM in the assay with UO-31 renal.

With `CCCCCCCCCCCC(=O)OC[C@@H](C[As](=O)(O)O)OC(=O)CCCCCCCCCCC`, the TGI with COLO 205 colon came out at 36.6 µM; in the assay on EKVX NSCLC it was 28.8 µM; with HCT-15 colon, 24.1 µM; in the assay with HT29 colon, 25.3 µM; with LOX IMVI melanoma, 18.1 µM; with MDA-MB-435, 15 µM. In addition, the TGI in the assay on MDA-N is 15 µM; in the assay with NCI-H460 lung it was 11.1 µM; in the assay on RPMI-8226 leukemia, over 68.2 µM; in the assay with SK-MEL-5 melanoma, 3.91 µM; in the assay on SK-OV-3 ovarian, 26.2 µM; with U251 CNS, 4.42 µM. In the assay with UO-31 renal, this compound showed a TGI of 27.9 µM.

Turning to `OC(C/C=N/N=C/CC(O)(C(F)(F)Cl)C(F)(F)Cl)(C(F)(F)Cl)C(F)(F)Cl`, the TGI in the assay with COLO 205 colon, in the assay with EKVX NSCLC, in the assay with HCT-15 colon, in the assay with HT29 colon, in the assay on LOX IMVI melanoma and in the assay on MDA-MB-435 was over 10 µM in each case. Moreover, the TGI in the assay on MDA-N, in the assay with NCI-H460 lung, in the assay with RPMI-8226 leukemia, with SK-MEL-5 melanoma, in the assay with SK-OV-3 ovarian and in the assay on U251 CNS was over 10 µM in each case. For the same compound, in the assay on UO-31 renal, the TGI was over 10 µM.

For the compound `C=CC1(CC[C@]2(c3ccc(OC)c(OC)c3)C=[N+]([O-])O[C@H](O[C@@H]3CCCC[C@H]3C(C)(C)c3ccccc3)C2)OCC(C)(C)CO1`, the TGI in the assay with COLO 205 colon is over 53.3 µM; in the assay on EKVX NSCLC it was 45.5 µM; with HCT-15 colon it was over 48.5 µM; in the assay on HT29 colon it was 28.2 µM; in the assay on LOX IMVI melanoma, 35.1 µM; in the assay on MDA-MB-435, over 51.1 µM. Further, the TGI in the assay on MDA-N was 24.7 µM; with NCI-H460 lung, over 59.8 µM; in the assay on RPMI-8226 leukemia it was 26.5 µM; in the assay on SK-MEL-5 melanoma it was 28.3 µM; in the assay with SK-OV-3 ovarian it was over 65.3 µM; with U251 CNS it was over 50.5 µM. This compound showed a TGI in the assay on UO-31 renal of over 48.7 µM.

Turning to `COc1ccc(N2C(=O)C(=O)N(c3ccc(N=Nc4ccccc4)cc3)C2=S)cc1`, the TGI worked out at 31.4 µM in the assay on COLO 205 colon; 37 µM in the assay with EKVX NSCLC; 32.4 µM with HCT-15 colon; 37.1 µM in the assay with HT29 colon; 37.2 µM with LOX IMVI melanoma; 48.9 µM with MDA-MB-435. Besides, the TGI in the assay on MDA-N is 40.3 µM; in the assay with NCI-H460 lung, 34.1 µM; in the assay with RPMI-8226 leukemia, over 100 µM; in the assay on SK-MEL-5 melanoma, 30.4 µM; with SK-OV-3 ovarian it was 68.4 µM; in the assay with U251 CNS it was 32.6 µM. Moreover, in the assay on UO-31 renal, the TGI was found to be 30.3 µM.

As for `CCOC(=O)CCC(NC(=O)OCc1ccccc1)C(=O)NC(CCC(=O)OCC)C(=O)OCC` (centres undefined) (Cbz-Glu(OEt)-Glu(OEt)-OEt; configuration not given here), the TGI with COLO 205 colon, in the assay on EKVX NSCLC, in the assay with HCT-15 colon, in the assay on HT29 colon, with LOX IMVI melanoma and in the assay with MDA-MB-435 was over 100 µM throughout. The TGI in the assay on MDA-N, in the assay on NCI-H460 lung, with RPMI-8226 leukemia, in the assay on SK-MEL-5 melanoma, with SK-OV-3 ovarian and in the assay with U251 CNS was over 100 µM each time. Also, in the assay on UO-31 renal, the TGI was over 100 µM.

In the case of `O=[N+]([O-])c1c(F)c(F)c2c(c1F)N(CCCCCl)c1ccccc1S2`, the TGI in the assay on COLO 205 colon stood at 27.5 µM; in the assay with EKVX NSCLC, 41.3 µM; with HCT-15 colon it was 3.31 µM; in the assay on HT29 colon it was 6.74 µM; with LOX IMVI melanoma, 3.06 µM; in the assay with MDA-MB-435 it was 20.2 µM. The TGI in the assay with MDA-N was 28.9 µM; in the assay with NCI-H460 lung, 9.91 µM; in the assay with RPMI-8226 leukemia it was 20.8 µM; in the assay with SK-MEL-5 melanoma it was 32.7 µM; in the assay with SK-OV-3 ovarian, 34 µM; with U251 CNS, 25.3 µM. This compound also gave a TGI with UO-31 renal of 30.5 µM.

On to `COc1cccc(CC(=O)N2CCN(CCCc3ccccc3)CC2)c1`, for which the TGI with COLO 205 colon, in the assay on EKVX NSCLC, with HCT-15 colon, with HT29 colon, in the assay with LOX IMVI melanoma and in the assay on MDA-MB-435 was over 100 µM in each case. Moreover, the TGI in the assay on MDA-N was over 100 µM; in the assay on NCI-H460 lung, over 100 µM; with RPMI-8226 leukemia, over 100 µM; in the assay with SK-MEL-5 melanoma it was 77.1 µM; in the assay with SK-OV-3 ovarian it was over 100 µM; with U251 CNS, over 100 µM. The compound also displayed a TGI in the assay on UO-31 renal of over 100 µM.
